Results: patent US7608630B2, “Marasmius androsaceus L.es Fr extract, piperidone derivative, and their use for the preparation of hypertensives” (Hainan Yangpu New Special Pharmaceutical Co., Ltd., priority 2004, dated 2009)
Where “and” joins values, the source holds several entries; their conditions need not be identical. Equal entries are not always repeated.

How the values were obtained:
[1] = test system: blood pressure of cats; test: Reduction of blood pressure of cat; format: in vivo; conditions: cats, 10 mg/kg o.s; for Diastolic pressure, individual animals / Systolic pressure, Animal 1-4 individually: 10 mg/kg
Experimental: A spontaneously hypertensive rat (SHR) was anesthetized with 40 mg/ml pentobarbital, and fixed by its back on an experimental stand. The skin at its neck was cut open after removing hair, and thereafter the right common carotid artery was separated with its proximal end being clamped by a artery clamp and its axifugal end being ligated by a thread. A V-shape cut was made with scissors at the axifugal end, into which an arterial cannula filled with heparin physiological saline was inserted. The arterial cannula was connected with a blood pressure transducer, and then the blood pressure transducer was connected to a computer-controlled three-way physiological-pharmacological recorder. The right femoral vein of the rat was separated and intubated for the injection of a drug. When the blood pressure became stable (i.e., the blood pressure contraction curve became straight), the rat was administered by intravenous route.
Five cats of 2.5-3.2 kg were administered orally and intravenously respectively according to the method in Example 8, and then their systolic pressure and diastolic pressure were determined using normal cats non-administered as a control group.

[2] = test system: aorta smooth muscle of rabbit; test: Effects on aorta of rabbit (contraction of isolated aorta section caused by adrenalin); design: species or system New Zealand rabbit
Experimental: A New Zealand rabbit was beheaded and unconscious. After thoracotomy, its thoracic aorta was quickly taken out, and quickly placed in and flushed with a pre-cooled LOCK's solution (which comprised of 1000 ml water, 9 g NaCl, 0.35 g KCl, 0.35 g MgSO4.7H2O, 0.16 g KH2PO4, and 1 g NaHCO3) to remove bloodiness. The connective tissue outside the blood vessel was carefully cut off, and an aorta section of 2-3 mm wide at an angle of 45° relative to the vessel was taken for use in the following test.
The aorta section of 2 cm long was clamped at its both ends with frog heart clips, and put in a thermostatic perfusion tank of 38° C. with the lower end being fixed at the bottom of the tank and the top end being connected by a thread to a tensile transducer of a two-way electrophysiolograph. Oxygen was bubbled to the solution in the perfusion tank, and the contraction force of the aorta section was recorded after balancing it in the solution for 80 min. During which, the LOCK's solution was changed once per 20 min. After adding 1.2×10^−6 mg/ml adrenalin to the solution, the contraction curve of the aorta section was recorded.

[3] = test system: ileum smooth muscle of guinea pig; test: Effects on ileum smooth muscle of guinea pig (automatic rhythmic contraction of isolated ileum section)
Experimental: The section was clamped at its both ends with frog heart clips, and placed in a perfusion tank with the lower end being fixed at the bottom of the tank and the top end being connected by a thread to a tensile transducer of a two-way electrophysiolograph, so that the automatic rhythmic contraction of the ileum section was recorded. The Tai's nutrient solution in the tank was kept at a temperature of 35° C., into which pure […] was bubbled. […] The normal contraction curve of the ileum section was firstly recorded using isoprenaline as a positive control.

[4] = concentration range 5×10^−4 to 10×10^−2 mg/ml

In the case of `CC1(C)CNCC(C)(C)C1=O` [Compound of formula II, 3,3,5,5-tetramethyl-4-piperidone], the “Average Diastolic pressure” value ([1]; 10 min after administration) is reported as 119 mmHg, the “Average Systolic pressure” value ([1]; 10 min after administration) is reported as 166.25 mmHg and the “Diastolic pressure, individual animals” value ([1]; 10 min after administration) is reported as 143 mmHg and 145 mmHg and 112 mmHg and 76 mmHg. The “Systolic pressure, Animal 1-4 individually” value ([1]; 10 min after administration) was 190 mmHg and 180 mmHg and 159 mmHg and 136 mmHg, the “Average Diastolic pressure” value ([1]; 20 min after administration) was 107.25 mmHg and the “Average Systolic pressure” value ([1]; 20 min after administration) was 153 mmHg. The “Diastolic pressure, individual animals” value ([1]; 20 min after administration) was 130 mmHg and 136 mmHg and 91 mmHg and 72 mmHg, the “Systolic pressure, Animal 1-4 individually” value ([1]; 20 min after administration) was 170 mmHg and 181 mmHg and 138 mmHg and 123 mmHg and the “Average Diastolic pressure” value ([1]; 30 min after administration) was 96 mmHg. For the same compound, the “Average Systolic pressure” value ([1]; 30 min after administration) was 140.5 mmHg, the “Diastolic pressure, individual animals” value ([1]; 30 min after administration) was 110 mmHg and 108 mmHg and 91 mmHg and 75 mmHg and the “Systolic pressure, Animal 1-4 individually” value ([1]; 30 min after administration) was 154 mmHg and 140 mmHg and 138 mmHg and 130 mmHg. The “Average Diastolic pressure” value ([1]; 40 min after administration) was 95.25 mmHg, the “Average Systolic pressure” value ([1]; 40 min after administration) was 140.5 mmHg and the “Diastolic pressure, individual animals” value ([1]; 40 min after administration) was 107 mmHg and 100 mmHg and 95 mmHg and 79 mmHg. For the same compound, the “Systolic pressure, Animal 1-4 individually” value ([1]; 40 min after administration) was 146 mmHg and 133 mmHg and 143 mmHg and 140 mmHg, the “Average Diastolic pressure” value ([1]; 50 min after administration) was 101 mmHg and the “Average Systolic pressure” value ([1]; 50 min after administration) was 144.25 mmHg. The “Diastolic pressure, individual animals” value ([1]; 50 min after administration) was 110 mmHg and 116 mmHg and 95 mmHg and 83 mmHg, the “Systolic pressure, Animal 1-4 individually” value ([1]; 50 min after administration) was 149 mmHg and 140 mmHg and 144 mmHg (2×) and the “Average Diastolic pressure” value ([1]; 60 min after administration) was 103 mmHg. The “Average Systolic pressure” value ([1]; 60 min after administration) was 144 mmHg, the “Diastolic pressure, individual animals” value ([1]; 60 min after administration) was 110 mmHg and 117 mmHg and 102 mmHg and 83 mmHg and the “Systolic pressure, Animal 1-4 individually” value ([1]; 60 min after administration) was 149 mmHg and 153 mmHg and 130 mmHg and 144 mmHg. For the same compound, the “Average Diastolic pressure” value ([1]; 90 min after administration) was 103.75 mmHg, the “Average Systolic pressure” value ([1]; 90 min after administration) was 157 mmHg and the “Diastolic pressure, individual animals” value ([1]; 90 min after administration) was 102 mmHg and 120 mmHg and 97 mmHg and 96 mmHg. For the same compound, the “Systolic pressure, Animal 1-4 individually” value ([1]; 90 min after administration) was 154 mmHg (2×) and 180 mmHg and 140 mmHg, the “Average Diastolic pressure” value ([1]; 120 min after administration) was 108.25 mmHg and the “Average Systolic pressure” value ([1]; 120 min after administration) was 165 mmHg. The “Diastolic pressure, individual animals” value ([1]; 120 min after administration) was 93 mmHg and 154 mmHg and 96 mmHg and 90 mmHg, the “Systolic pressure, Animal 1-4 individually” value ([1]; 120 min after administration) was 146 mmHg and 195 mmHg and 163 mmHg and 156 mmHg and the “Average Diastolic pressure” value ([1]; 150 min after administration) was 111.75 mmHg. The “Average Systolic pressure” value ([1]; 150 min after administration) was 169.25 mmHg, the “Diastolic pressure, individual animals” value ([1]; 150 min after administration) was 93 mmHg and 161 mmHg and 109 mmHg and 84 mmHg and the “Systolic pressure, Animal 1-4 individually” value ([1]; 150 min after administration) was 146 mmHg and 206 mmHg and 168 mmHg and 157 mmHg. The “Average Diastolic pressure” value ([1]; 180 min after administration) was 117.5 mmHg, the “Average Systolic pressure” value ([1]; 180 min after administration) was 176.25 mmHg and the “Diastolic pressure, individual animals” value ([1]; 180 min after administration) was 107 mmHg and 164 mmHg and 112 mmHg and 87 mmHg. For the same compound, the “Systolic pressure, Animal 1-4 individually” value ([1]; 180 min after administration) was 158 mmHg and 213 mmHg and 170 mmHg and 164 mmHg, the “Average Systolic pressure” value ([1]; 210 min after administration) was 176.5 mmHg and the “Systolic pressure, Animal 1-4 individually” value ([1]; 210 min after administration) was 159 mmHg and 213 mmHg and 170 mmHg and 164 mmHg. The “Average Systolic pressure” value ([1]; 240 min after administration) was 182.75 mmHg, the “Systolic pressure, Animal 1-4 individually” value ([1]; 240 min after administration) was 178 mmHg and 213 mmHg and 176 mmHg and 164 mmHg and the “Average Diastolic pressure” value ([1]; before administration) was 147.5 mmHg. For the same compound, the “Average Systolic pressure” value ([1]; before administration) was 202.5 mmHg, the “Diastolic pressure, individual animals” value ([1]; before administration) was 143 mmHg and 165 mmHg and 145 mmHg and 137 mmHg and the “Systolic pressure, Animal 1-4 individually” value ([1]; before administration) was 191 mmHg and 215 mmHg and 196 mmHg and 208 mmHg. The “Time of taking effect” value ([2]; concentration 1 × 10^−4 mg/ml) was 2 min, the Contraction force ([2]; concentration 1 × 10^−4 mg/ml, 10 min, then adrenalin 1.2×10^−6 mg/ml, relative to original value) was 0.3 and the “reduction of the contraction of aorta section caused by adrenalin” value ([2]; concentration range 5×10^−3-1×10^−4 mg/ml) was “could obviously reduce the contraction of aorta section caused by adrenalin”. For the same compound, the “inhibition of the contraction of aorta smooth muscle caused by adrenalin” value [2, 4] was “inhibit the contraction of aorta smooth muscle of rabbit caused by adrenalin”, the “contraction force resumed by adrenalin, fraction of the original value” ([2]; sample 10 min, then adrenalin 1.2×10^−6 mg/ml, stated for the three samples together) was “½-⅓” and the “Relaxation Time” value ([3]; concentration 1 × 10^−4 mg/ml) was 7 h. The “Time of taking effect” value ([3]; concentration 1 × 10^−4 mg/ml) was 2 min, the “inhibition of the automatic rhythmic contraction of ileum section” value [3, 4] was “inhibit the automatic rhythmic contraction of ileum section” and the “inhibition of the automatic rhythmic contraction of the ileum section” value ([3]; different concentrations) was “could inhibit the automatic rhythmic contraction of the ileum section”.
